# According to publication PMC6449294, “SNAPshots of the MCHR1: a Comparison Between the PET-Tracers [^18F]FE@SNAP and [^11C]SNAP-7941” (Molecular Imaging and Biology, 2018):
# Experiments:
# [1] = biological target: T1, human serum albumin (HSA) (Homo sapiens, UniProt P02768); test: Plasma protein binding using bioaffinity chromatography (CHIRALPAK HSA); type: in vitro ADME; details: bioaffinity chromatography on HSA stationary phase
# T1 construct: purchased Daicel Chemical Industries CHIRALPAK HSA, column-batch H13L-2405
# Experimental: The binding of (±)-SNAP-7941 and FE@SNAP to human serum albumin (HSA) was examined by bioaffinity chromatography according to a previously published manuscript. In short, the analytes were diluted in 2-propanol and ammonium acetate buffer (0.5 mg/ml) and injected on the CHIRALPAK®HSA stationary phase (50 × 3 mm, 5 μm pore size, column-batch: H13L-2405, Daicel Chemical Industries, West Chester, PA, USA). Prior the experiments, the column was calibrated with reference standards, and the resulting regression equation was used to convert the logarithmic capacity factors (log(k′)) to the percent of plasma protein binding (%PPB). The calibration curves, as well as the experiments, were performed by triplicate injections and at least three times.
# MCHR1 = biological target: MCHR1; parameters: method as in PMID 28808288; details: previous experiments; read-out: Affinity to MCHR1 (Ki); cited from earlier work
# T1 sequence (P02768 25-609): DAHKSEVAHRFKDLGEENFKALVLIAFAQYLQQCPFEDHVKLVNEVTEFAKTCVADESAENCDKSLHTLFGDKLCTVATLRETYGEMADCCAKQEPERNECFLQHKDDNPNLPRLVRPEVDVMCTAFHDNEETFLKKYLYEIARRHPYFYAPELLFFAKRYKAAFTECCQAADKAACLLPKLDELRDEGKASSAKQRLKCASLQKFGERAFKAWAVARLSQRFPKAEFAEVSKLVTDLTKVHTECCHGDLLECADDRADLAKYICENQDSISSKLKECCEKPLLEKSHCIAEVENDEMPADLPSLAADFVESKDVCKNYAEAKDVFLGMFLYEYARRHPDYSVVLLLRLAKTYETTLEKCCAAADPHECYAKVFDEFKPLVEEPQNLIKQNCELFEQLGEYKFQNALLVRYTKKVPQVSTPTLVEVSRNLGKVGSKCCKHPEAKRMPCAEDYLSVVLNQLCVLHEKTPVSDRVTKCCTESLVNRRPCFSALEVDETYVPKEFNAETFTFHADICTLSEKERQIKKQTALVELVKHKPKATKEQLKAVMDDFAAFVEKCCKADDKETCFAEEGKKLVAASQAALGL
Compound,Plasma protein binding (%PPB) / Binding to human serum albumin [1] [%],Ki (MCHR1) [nM]
"COCC1=C(C(=O)OC)[C@H](c2ccc(F)c(F)c2)N(C(=O)NCCCN2CCC(c3cccc(NC(C)=O)c3)CC2)C(=O)N1 (racemic) [(±)-SNAP-7941, reference compound]",80 ± 0.9,3.91 ± 0.74
"COCC1=C(C(=O)OCCF)C(c2ccc(F)c(F)c2)N(C(=O)NCCCN2CCC(c3cccc(NC(C)=O)c3)CC2)C(=O)N1 (racemic) [FE@SNAP, (±)-(2-fluoroethyl)-3-{[(3-{4-[3-(acetylamino)phenyl]-1-piperidinyl}propyl)amin]carbonyl}-4-(3,4-difluorophenyl)-6-(methoxymethyl)-2-oxo-1,2,3,4-tetra-hydro-5-pyrimidenecarboxylate]",77 ± 0.2,9.98 ± 1.12
